EC50 data for 5 compounds are collected here from ChEMBL document CHEMBL1149008, “Antitumor agents, 81. Justicidin-A and diphyllin, two cytotoxic principles from Justicia procumbens” (1986).

The assay deals with KB. In words: Cytotoxicity against human KB cells. As to conditions: read-out: ED50 (the source's name). It is filed as functional.

In brackets after ≈: the same amount, converted by molar mass. Some results are limits rather than exact numbers.

Take `COc1cc2c(O)c3c(c(-c4ccc5c(c4)OCO5)c2cc1OC)C(=O)OC3` [DIPHYLLIN]: the EC50 is under 1 µg/mL.
With `COc1c2c(c(-c3ccc4c(c3)OCO4)c3cc4c(cc13)OCO4)COC2=O` [NEOJUSTICIN A] the figure was 9 µg/mL (≈ 23.8 µM); with `O=C1OCc2c1cc1cc3c(cc1c2-c1ccc2c(c1)OCO2)OCO3`, over 10.5 µg/mL; with `COc1cc2c(OC)c3c(c(-c4ccc5c(c4)OCO5)c2cc1OC)C(=O)OC3` [JUSTICIDIN A], under 1 µg/mL.
For `COc1cc2c(OC)c3c(c(-c4ccc5c(c4)OCO5)c2cc1OC)COC3=O` [NEOJUSTICIN B], the EC50 is over 10.5 µg/mL.
